What was measured:
[1] = target: T1, GST-CBP (1081-1197) bromodomain (Homo sapiens, UniProt Q92793); assay: CBP AlphaScreen assay; conditions: binding to biotin-H4 (1-21) Ac-K5/8/12/16
T1 construct: The GST tagged bromodomains of CBP (1081-1197) and BRD4 (49-170) were obtained from BPS Bioscience; purchased BPS Bioscience
Experimental: (§1) Specific binding of the CBP or BRD4 bromodomain to the acetylated peptide derived from the H4 histone substrate (tetra acetylated H4 (1-21) Ac—K5/8/12/16) was measured in absence or presence of inhibitors. The GST tagged bromodomains of CBP (1081-1197) and BRD4 (49-170) were obtained from BPS Bioscience and binding to the biotinylated H4 (1-21) Ac—K5/8/12/16 (AnaSpec. 64989) was assessed via AlphaScreen technology (Perkin Elmer).
CBP AlphaScreen assay: 5 nM GST-CBP (1081-1197) and 20 nM biotin-H4 (1-21) Ac—K5/8/12/16 (AnaSpec. 64989) were incubated with varying concentrations of CBP inhibitors in 15 μL of buffer containing 50 mM HEPES 7.5, […], 1 mM TCEP, and 0.003% Tween-20. After 30 minutes incubation at room temperature, 15 μL of detection buffer (BPS Bio. 33006) containing 7 μg/mL of Glutathione AlphaLisa acceptor beads (Perkin Elmer AL109) and 14 μg/mL of Streptavidin donor beads (Perkin Elmer 676002) was then added to the previous mixture. The reaction was incubated for an additional 2 hours at room temperature, and the AlphaScreen signal was quantified using the Envision Multilabel plate reader. As negative control, GST-CBP (1081-1197) was incubated with the non-acetylated biotin-H4 (1-21) peptide (AnaSpec. 62555) and in presence of 0.25% of final DMSO concentration.
(§2) BRD4 AlphaScreen assay: The binding of 2.5 nM of BRD4 (49-170) to 10 nM biotin-H4 (1-21) Ac—K5/8/12/16 (AnaSpec. 64989) was assessed following the same procedure described for the CBP assay. The standard dose response curves were fitted by Genedata Screener software using the variable-slope model: Signal=Signalnegative control+(SignalDMSO control−Signalnegative control)/(1+(IC50/Dose)∧Hill slope).
(§3) Only Signal and Dose in the equation were treated as known values.

[2] = target: T2, BRD4 (49-170) bromodomain (Homo sapiens, UniProt O60885); assay: BRD4 AlphaScreen assay; conditions: binding to biotin-H4 (1-21) Ac-K5/8/12/16
T2 construct: The GST tagged bromodomains of CBP (1081-1197) and BRD4 (49-170) were obtained from BPS Bioscience; purchased BPS Bioscience
Experimental: as §1, §2, §3

DOHH2 cells = assay: DOHH2 Proliferation Assay; type: cell-based; conditions: Homo sapiens, DOHH-2, 168 h; CellTiter-Glo viability on day 7
Experimental: DOHH2 Proliferation Assay: On day 1, 1000 DOHH2 cells were seeded to a 384-well TC plate (PerkinElmer #6007680) in 40 μL RPMI 1640 media, followed by the addition of CBP inhibitors except for column 13 where 3.3 μM staurosporine was added as negative control. DMSO was 0.1% in all the wells. The cells were lysed in and counted viability by 40 μL CellTiter-Glo (Promega #G9243) on day 7. The luminescent signal was quantified by Envision Multilabel plate reader and the standard dose response curves were fitted by Genedata Screener software using the variable-slope model: Signal=Signalnegative control+(SignalDMSO control−Signalnegative control)/(1+(IC50/Dose)∧Hill slope).
as §3

[3] = Metabolic stability in mouse liver microsomes; type: in vitro ADME, CD-1 mouse; conditions: CD-1, liver microsomes, pH 7.4, 0.5 mg/mL microsomes, NADPH, 45 minutes, 37° C., read-out: Half-life in liver microsomes (t1/2)
Experimental: (§4) Microsomal stability. Microsomal stability assays were conducted on a Beckmann Biomek FXp laboratory automation system. The liver microsomal incubation mixture consisted of liver microsomes (0.5 mg microsomal protein/mL), the Compound (1 μM), MgCl2 (3 mM), and EDTA (1 mM) in potassium phosphate buffer (100 mM, pH 7.4). Midazolam and Ketanserin were used as the assay control substrates. The reaction was initiated with the addition of an NADPH regeneration solution (1.3 mM NADPH) and maintained at 37° C. with shaking. At five time points ranging from 0 to 45 min, aliquots (50 μL) were removed and quenched with acetonitrile (100 μL) containing an internal standard (imipramine). After vortex and centrifugation, samples were analyzed by LC-MS/MS. Calculation of the in vitro half-lives and clearance followed literature guidelines.

[4] = Metabolic stability in rat liver microsomes; type: in vitro ADME; conditions: Sprague Dawley, pH 7.4, 0.5 mg/mL microsomes, NADPH, 45 minutes, 37° C., read-out: Half-life in liver microsomes (t1/2)
Experimental: as §4

[5] = Metabolic stability in human liver microsomes; type: in vitro ADME; conditions: pH 7.4, 0.5 mg/mL microsomes, NADPH, 45 minutes, 37° C., read-out: Half-life in liver microsomes (t1/2)
Experimental: as §4

[6] = Metabolic stability in monkey liver microsomes; type: in vitro ADME; conditions: pH 7.4, read-out: Liver microsomal clearance (t1/2)
Experimental: as §4

[7] = Metabolic stability in dog liver microsomes; type: in vitro ADME; conditions: pH 7.4, read-out: Liver microsomal clearance (t1/2)
Experimental: as §4

[8] = In vivo pharmacokinetics after a single dose, mouse; design: species or system Female CD-1 Mice; conditions: for mouse in vivo clearances compared to the structural analogs previously disclosed / mouse in vivo half-lives compared to the structural analogs previously disclosed: in words; for clearance / half-life / Vd: plasma, Female CD-1 mice, single dose 0.2 or 0.3 mg/kg IV; for Vd: read-out: Vss
Experimental: (§5) IV (intravenous) doses were formulated in 20% DMSO+60% PEG400+20% water. PO (per os) doses were formulated in 0.5% methylcellulose in water.
Mouse: Female mice (CD1 strain, purchased from Shanghai JH Laboratory Animal Co. LTD) weighing 20-30 g were used for studies. Food and water were available to all animals ad libitum. The test article was dosed via tail vein (IV doses) or oral gavage (PO doses), respectively. Blood samples were collected from all animals at predose and at 0.083, 0.25, 0.5, 1, 2, 4, 8, and 24 h postdose into tubes containing the anticoagulant K2EDTA (3 animals per time point with 3 time points collected per animal). Plasma was separated from the blood by centrifugation at 4° C. and stored at −70° C. until analysis. Test article concentrations in plasma were quantified using a liquid chromatography with tandem mass spectrometry (LC-MS/MS) method.

[9] = In vivo pharmacokinetics after a single dose, rat; conditions: male, plasma, Sprague-Dawley rat
Experimental: as §5
Rat: Male rats (SD strain, purchased from Shanghai JH Laboratory Animal Co. LTD) weighing 200-300 g were used for studies. Animals were fasted overnight and fed 4 h postdose. Water was available ad libitum for all animals. Test article was dosed via dorsal foot vein (IV doses) or oral gavage (PO doses). Blood samples were collected via tail vein from all animals at predose and at 0.083, 0.25, 0.5, 1, 2, 4, 8, and 24 h postdose into tubes containing the anticoagulant K2EDTA. Plasma was separated from the blood by centrifugation at 4° C. and stored at −70° C. until analysis. Test article concentrations in plasma were quantified using a liquid chromatography with tandem mass spectrometry (LC-MS/MS) method.

[10] = In vivo pharmacokinetics after a single dose, monkey; conditions: male, plasma, Cynomolgus monkey
Experimental: as §5
(§6) Monkey: Male Cynomolgus monkeys (purchased from Hainan Jingang Biotech. Co., Ltd) weighing 3-5 kg were used for studies. Animals were fasted overnight and fed 4 h postdose. Test article was administered to monkeys via the cephalic vein (IV doses) or nasal gavage (PO doses). Blood samples were collected via the saphenous vein or cephalic vein from all animals at predose and 0.083, 0.25, 0.5, 1, 2, 4, 8, and 24 h postdose into tubes containing the anticoagulant K2EDTA. Plasma was separated from the blood by centrifugation at 4° C. and stored at −70° C. until analysis. Test article concentrations in plasma were quantified using a liquid chromatography with tandem mass spectrometry (LC-MS/MS) method.

[11] = In vivo pharmacokinetics after a single dose, dog; conditions: male, plasma, Beagle dog
Experimental: as §5
as §6, with “Dog:” for “Monkey:”, “Beagle dogs” for “Cynomolgus monkeys”, “Beijing Marshall Biotechnology” for “Hainan Jingang Biotech.”, “7-10” for “3-5”, “dogs” for “monkeys”, “oral” for “nasal”

[12] = 1 mg/kg IV single dose, read-out: Vss

T1 sequence (Q92793 1081-1197): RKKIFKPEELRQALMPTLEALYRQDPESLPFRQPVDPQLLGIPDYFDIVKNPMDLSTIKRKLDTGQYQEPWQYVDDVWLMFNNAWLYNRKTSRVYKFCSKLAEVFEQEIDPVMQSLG

CC(=O)N1CCn2c(C3CCOCC3)nc(-c3cccc4cc(-c5cnc(C)s5)ncc34)c2C1 [Compound 1, 1-(1-(3-(2-methylthiazol-5-yl)isoquinolin-8-yl)-3-(tetrahydro-2H-pyran-4-yl)-5,6-dihydroimidazo[1,5-α]pyrazin-7 (8H)-yl)ethan-1-one]
IC50 [1]: 7 nM | IC50 [2]: 13.2 µM | IC50 (DOHH2 cells): 261 nM | half-life at 1 μM [3]: 393 min | half-life at 1 μM [4]: 1220 min | half-life at 1 μM [5]: 310 min | half-life at 1 μM [6]: 97 min | half-life at 1 μM [7]: 713 min | mouse in vivo clearances compared to the structural analogs previously disclosed [8]: dramatic decrease | mouse in vivo half-lives compared to the structural analogs previously disclosed [8]: increase | clearance [8]: 6.2 mL/min/kg | half-life [8]: 179 min | Vd [8]: 1.45 L/kg | clearance ([9]; 1 mg/kg IV single dose): 11.2 mL/min/kg | half-life ([9]; 1 mg/kg IV single dose): 229 min | Vd [9, 12]: 2.31 L/kg | AUC(0-t) ([9]; 30 mg/kg PO single dose): 124 µM·h | Cmax ([9]; 30 mg/kg PO single dose): 23 µM | bioavailability ([9]; 30 mg/kg PO single dose): 129% | clearance ([10]; 1 mg/kg IV single dose): 6.97 mL/min/kg | half-life ([10]; 1 mg/kg IV single dose): 284 min | Vd [10, 12]: 2.28 L/kg | AUC(0-t) ([10]; 3 mg/kg PO single dose): 11.3 µM·h | Cmax ([10]; 3 mg/kg PO single dose): 1970 nM | bioavailability ([10]; 3 mg/kg PO single dose): 70.5% | clearance ([11]; 1 mg/kg IV single dose): 4.3 mL/min/kg | half-life ([11]; 1 mg/kg IV single dose): 584 min | Vd [11, 12]: 3.38 L/kg | AUC(0-t) ([11]; 3 mg/kg PO single dose): 26.2 µM·h | Cmax ([11]; 3 mg/kg PO single dose): 2560 nM | bioavailability ([11]; 3 mg/kg PO single dose): 119%

CNC(=O)c1ccc(-c2cc3cccc(-c4nc(C5CC5)n5c4CN(C(C)=O)CC5)c3cn2)cn1 [Compound 2, 5-(8-(7-Acetyl-3-cyclopropyl-5,6,7,8-tetrahydroimidazo[1,5-α]pyrazin-1-yl)isoquinolin-3-yl)-N-methylpicolinamide]
IC50 [1]: 15 nM | IC50 [2]: 25 µM | IC50 (DOHH2 cells): 376 nM

CNC(=O)c1ccc(-c2cc3cccc(-c4nc(C5CCOCC5)n5c4CN(C(C)=O)CC5)c3cn2)cn1 [Compound 3, 5-(8-(7-Acetyl-3-(tetrahydro-2H-pyran-4-yl)-5,6,7,8-tetrahydroimidazo[1,5-α]pyrazin-1-yl)isoquinolin-3-yl)-N-methylpicolinamide]
IC50 [1]: 16 nM | IC50 [2]: 15 µM | IC50 (DOHH2 cells): 232 nM | half-life at 1 μM [3]: 482 min | half-life at 1 μM [4]: 302 min | half-life at 1 μM [5]: 289 min | mouse in vivo clearances compared to the structural analogs previously disclosed [8]: dramatic decrease | mouse in vivo half-lives compared to the structural analogs previously disclosed [8]: increase | clearance [8]: 11.9 mL/min/kg | half-life [8]: 153 min | Vd [8]: 1.84 L/kg

CNC(=O)c1ccc(-c2cc3cccc(-c4nc(C56CCC(CC5)OC6)n5c4CN(C(C)=O)CC5)c3cn2)cn1 [Compound 4, 5-(8-(7-acetyl-3-(2-oxabicyclo[2.2.2]octan-4-yl)-5,6,7,8-tetrahydroimidazo[1,5-α]pyrazin-1-yl)isoquinolin-3-yl)-N-methylpicolinamide]
IC50 [1]: 22 nM | IC50 [2]: 17 µM | IC50 (DOHH2 cells): 676 nM

CNC(=O)c1ccc(-c2cc3ccc(F)c(-c4nc(C5CCOCC5)n5c4CN(C(C)=O)CC5)c3cn2)cn1 [Compound 5, 5-(8-(7-Acetyl-3-(tetrahydro-2H-pyran-4-yl)-5,6,7,8-tetrahydroimidazo[1,5-α]pyrazin-1-yl)-7-fluoroisoquinolin-3-yl)-N-methylpicolinamide]
IC50 [1]: 34 nM | IC50 [2]: 20.4 µM | IC50 (DOHH2 cells): 216 nM

CC(=O)N1CCn2c(C3CCOCC3)nc(-c3c(F)ccc4cc(-c5cnc(C)s5)ncc34)c2C1 [Compound 6, 1-(1-(7-fluoro-3-(2-methylthiazol-5-yl)isoquinolin-8-yl)-3-(tetrahydro-2H-pyran-4-yl)-5,6-dihydroimidazo[1,5-α]pyrazin-7 (8H)-yl)ethan-1-one]
IC50 [1]: 14 nM | IC50 [2]: 22.2 µM | IC50 (DOHH2 cells): 541 nM

CNC(=O)c1ccc(-c2cc3cccc(-c4nc(C5CCOCC5)n5c4CN(C(=O)NC)CC5)c3cn2)cn1 [Compound 8, reference compound]
half-life at 1 μM [3]: 610 min | half-life at 1 μM [4]: 540 min | half-life at 1 μM [5]: 462 min | clearance [8]: 54.8 mL/min/kg | half-life [8]: 35.3 min | Vd [8]: 2 L/kg
